What was measured:
[1] = system: K-562 leukemia cells; test: Cell culture and GI50 determination (resazurin), K-562; format: cell-based; settings: Homo sapiens, K562, K-562, 48 hour incubation
Protocol: (§1) Krek (Institute of Cell Biology, ETH Zurich) were cultured in Dulbelcco's modified Eagle's medium (DMEM) supplemented with 10% (v/v) fetal bovine serum. K562 leukemia cells obtained from Dr. Silvio Hemmi (Institute of Molecular Life Sciences, UZH) were cultured using RPMI medium supplemented with 5% (v/v) fetal bovine serum. All the media was additionally supplemented with 100 units/mL of penicillin, 100µg/mL of streptomycin, 4.5 g/L glucose, 0.11g/L sodium pyrubate and 2mM glutamine and the cells were grown at 37°C in 5% CO2 atmosphere with 80% relative humidity.
After 24 hours, 12.5 µL of a 10 fold concentrated drug or DMSO solution in RMPI media was added in every well. After 48 hour incubation, cell viability was studied by measuring the ability of the cells to process resazurin.

[2] = biological target: T1, EphA3 (Homo sapiens, UniProt P29320); test: Differential Scanning Fluorimetry; format: binding; settings: 2 µM EphA3, compound 20µM; read-out: Delta Tm
T1 construct: A clone of EphA3 kinase domain (residues: 606-947); made in house; host or cells: Escherichia coli BL21 (DE3)
T1 sequence (P29320 606-947): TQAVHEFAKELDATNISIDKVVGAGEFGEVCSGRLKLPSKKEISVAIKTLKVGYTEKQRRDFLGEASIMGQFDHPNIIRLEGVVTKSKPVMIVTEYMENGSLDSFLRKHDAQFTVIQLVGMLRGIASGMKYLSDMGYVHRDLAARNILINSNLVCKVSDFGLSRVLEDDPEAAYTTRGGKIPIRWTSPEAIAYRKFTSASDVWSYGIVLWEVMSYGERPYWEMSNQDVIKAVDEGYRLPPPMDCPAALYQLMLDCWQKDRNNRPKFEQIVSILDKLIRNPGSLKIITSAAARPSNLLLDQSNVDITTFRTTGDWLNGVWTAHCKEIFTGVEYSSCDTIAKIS
Protocol: Cell pellets were resuspended in buffer A (50mM Tris, pH 8.0 and 100mM NaCl, supplemented with protease inhibitors) and lysed by sonication. After centrifugation at 15,000 rpm for 1 h, the soluble fraction of EphA3 was purified using […] (GE healthcare), followed by gel filtration chromatography (Superdex75; GE healthcare). The appropriate fractions were combined and concentrated to ~10 mg/mL using Amicon filter devices (10kDa as cutoff) in a storage solution (100mM sodium chloride and 10mM Tris-HCl pH 8.0, 5% glycerol). The resulting solution was aliquoted and stored at -80°C for further usage.
A final volume of 40µL was added per well in a 96 well plate and incubated at room temperature for 1 h. The plates were centrifuged for 3 min at 450 rcf. The temperature gradient was performed in the range of 25°C-75°C (50 acquisitions per degree at a ramp rate of 4.4°C/s) using a LightCycler 480 Real-Time PCR System. […] All measurements were performed in triplicate.

[3] = system: KM12 (colon cancer) cells; test: Cell culture and GI50 determination (resazurin), KM12; format: cell-based; settings: Homo sapiens
Protocol: as §1
(§2) The old media was removed, the cells were washed with PBS (phosphate-buffered saline) and fresh media was added. […] Control cells were treated with the same DMSO concentrations. […] After 3 hours, the fluorescence was quantified using a fluorescence microplate reader (Biotek, FLx800™) at the respective excitation and emission wavelength of 560 and 590 nm. Resazurin becomes fluorescent under mitochondrial reduction and its emission directly correlates with the metabolic stability of the cells. […] All measurements were performed at least in triplicate (see table 1).

[4] = system: A498 (kidney cancer) cells; test: Cell culture and GI50 determination (resazurin), A-498; format: cell-based; settings: Homo sapiens, A-498, 48h incubation
Protocol: as §1, §2

[5] = system: MDA-MB-231 (breast cancer) cells; test: Cell culture and GI50 determination (resazurin), MDA-MB-231; format: cell-based; settings: Homo sapiens, MDA-MB-231, 72 h
Protocol: as §1, §2

[6] = system: HOP-92 (lung cancer) cells; test: Cell culture and GI50 determination (resazurin), HOP-92; format: cell-based; settings: Homo sapiens; HOP-92, resazurin
Protocol: as §1, §2

[7] = system: HT-29; test: Cell culture and GI50 determination (resazurin), HT-29; format: cell-based; settings: Homo sapiens; HT-29, resazurin
Protocol: as §2

[8] = biological target: T2, full-length human EphB4 (Homo sapiens, UniProt P54760); test: Cellular phosphorylation assay (sandwich ELISA, ProQinase); format: cell-based; settings: mouse embryonic fibroblast cells overexpressing EphB4, stimulated with murine ephrinB2-Fc, read-out: cell IC50
T2 construct: stably transfected to overexpress full-length human EphB4; host or cells: Mouse embryonic fibroblast cells
T2 sequence (P54760 16-987): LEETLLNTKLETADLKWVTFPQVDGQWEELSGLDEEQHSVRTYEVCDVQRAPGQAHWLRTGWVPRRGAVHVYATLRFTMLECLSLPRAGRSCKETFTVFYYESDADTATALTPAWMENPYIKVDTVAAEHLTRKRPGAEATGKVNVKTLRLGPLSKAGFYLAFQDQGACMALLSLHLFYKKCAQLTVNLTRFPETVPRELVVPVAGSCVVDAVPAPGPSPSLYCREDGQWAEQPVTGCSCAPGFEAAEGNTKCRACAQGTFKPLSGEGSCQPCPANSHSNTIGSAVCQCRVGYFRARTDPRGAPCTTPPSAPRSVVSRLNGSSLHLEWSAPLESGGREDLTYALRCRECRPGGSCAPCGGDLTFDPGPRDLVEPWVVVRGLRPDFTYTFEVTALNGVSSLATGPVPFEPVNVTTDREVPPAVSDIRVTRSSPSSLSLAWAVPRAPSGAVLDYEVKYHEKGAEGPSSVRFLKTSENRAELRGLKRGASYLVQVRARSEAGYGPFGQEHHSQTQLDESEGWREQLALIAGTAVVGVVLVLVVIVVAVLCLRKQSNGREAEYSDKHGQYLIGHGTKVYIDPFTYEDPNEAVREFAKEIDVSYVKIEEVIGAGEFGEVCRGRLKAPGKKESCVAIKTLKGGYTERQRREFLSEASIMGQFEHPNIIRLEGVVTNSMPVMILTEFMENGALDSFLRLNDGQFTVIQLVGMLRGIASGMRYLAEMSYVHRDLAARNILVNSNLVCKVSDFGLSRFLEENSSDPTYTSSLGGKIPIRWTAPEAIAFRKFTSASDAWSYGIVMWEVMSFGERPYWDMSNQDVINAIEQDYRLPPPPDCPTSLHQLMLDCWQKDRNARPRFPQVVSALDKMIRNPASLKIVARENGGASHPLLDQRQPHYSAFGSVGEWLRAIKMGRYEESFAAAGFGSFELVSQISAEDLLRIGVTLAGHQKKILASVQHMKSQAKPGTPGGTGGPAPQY
Protocol: Cellular phosphorylation assays: The cellular phosphorylation experiments were performed at ProQinase GmbH. Mouse embryonic fibroblast cells, stably transfected to overexpress full-length human EphB4, were plated at 4×10^4 cells/well in DMEM supplemented with 10% FCS in 48-well culture dishes. Medium was replaced by DMEM without FCS before test compounds prediluted in 100% DMSO were added (final DMSO concentration of 1 %). After incubation for 90 min at 37 °C, cells were stimulated for 2 h at 4 °C using murine ephrinB2-Fc at a final concentration of 2 µg/ml. Quantification of EphB4 phosphorylation was assessed in a 96-well plate via sandwich ELISA using a myc capture antibody and an antiphosphotyrosine detection antibody. Table 4: Cell IC50 (µmol/l) in cells overexpressing EphB4

[9] = system: panel of 456 protein kinases; test: Selectivity profiling at DiscoveRx (KinomeScan); format: binding; settings: 1 µM compound; for one or more of the protein kinases listed
Protocol: The selectivity profiling of compounds 10c, 10d, 10n and 10o were performed at DiscoveRx in a library of 456 kinases at a concentration of 1 µM. Briefly, kinases were mostly expressed as fusion proteins to […] and grown in 24-well blocks in E. Coli (derived from the BL21 strain). The rest of the kinases were expressed in HEK-293 cells and tagged with DNA for qPCR detection. Affinity resins were generated by mixing streptavidin-coated magnetic beads with biotinylated small molecule ligands for 30 minutes at 25 °C, followed by biotin and blocking buffer addition (SeaBlock (Pierce), 1 % BSA, 0.05 % Tween 20, 1 mM DTT). Inhibitors were kept at 40x stocks in 100% DMSO and added to the corresponding 384-well plates (40 µL). […] The kinase concentration present in the eluate was determined by qPCR. For further details, see Fabian, et. al., Nat. Biotechnol., 2005, 23 (3), 329-33.

| IC50 [8] [µM] | control binding to the kinase in presence of the compound relative to control binding in absence of the compound [9] | SMILES | GI50 [1] [µM] | ΔTm at 20 µM [2] [°C] | GI50 [3] [µM] | GI50 [4] [µM] | GI50 [5] [µM] | GI50 [6] [µM] | GI50 [7] [µM] |
| --- | --- | --- | --- | --- | --- | --- | --- | --- | --- |
| – | – | NC(=O)c1c(N)n(-c2cc(C(=O)Nc3cccc(C(F)(F)F)c3)ccc2F)c2nc3ccccc3nc12 [Compound 10j] | 0.081 | 13 | 1.87 | 2.44 | 2.69 | 2.12 | 2.97 |
| 1.1 | less than 10% of control | CC(C)(C)c1cc(NC(=O)Nc2ccc(-n3c(N)c(C(N)=O)c4nc5ccccc5nc43)cc2)n(-c2ccc3ncccc3c2)n1 [Compound 10n, 2-amino-1-(4-(3-(5-tert-butyl-2-quinolin-6-yl-2H-pyrazol)ureido)phenyl)-1H-pyrrolo[2,3-b]quinoxaline-3-carboxamide] | 0.003 | 19.3 | 0.15 | 0.73 | 0.21 | 0.45 | 1.25 |
| – | – | Cc1ccc(C(=O)Nc2cccc(C(F)(F)F)c2)cc1-n1c(N)c(C(N)=O)c2nc3ccccc3nc21 [Compound 10i] | 0.036 | 14.4 | 1.57 | 2.07 | 1.32 | 1.92 | 2.82 |
| – | – | NC(=O)c1c(N)n(-c2ccc(NC(=O)Nc3cccc(C(F)(F)F)c3)cc2)c2nc3ccccc3nc12 [Compound 10p, 2-amino-1-(4-(3-(3-(trifluoromethyl)phenyl)ureido)phenyl)-1H-pyrrolo[2,3-b]quinoxaline-3-carboxamide] | 5.45 | – | 0.67 | 10.8 | 10.3 | 10 | 18 |
| – | – | Cc1cn(-c2cc(C(=O)Nc3ccc(C)c(-n4c(N)c(C(N)=O)c5nc6ccccc6nc54)c3)cc(C(F)(F)F)c2)cn1 [Compound 10m] | 0.03 | 15.8 | 2.54 | 4.01 | 1.93 | 5.12 | 13.4 |
| 0.37 | less than 10% of control | Cc1ccc(-n2nc(C(C)(C)C)cc2NC(=O)Nc2ccc(-n3c(N)c(C(N)=O)c4nc5ccccc5nc43)cc2)cc1 [Compound 10o] | 0.02 | 17.3 | 0.21 | 1 | 0.98 | 1.48 | 0.78 |
| – | – | Cc1ccc(NC(=O)c2cccc(C(F)(F)F)c2)cc1-n1c(N)c(C(N)=O)c2nc3ccccc3nc21 [Compound 10g, 2-amino-1-(2-methyl-5-(3-(trifluoromethyl)benzamido)phenyl)-1H-pyrrolo[2,3-b]quinoxaline-3-carboxamide] | 0.73 | 12.3 | 0.8 | 2.5 | 3.88 | 4.23 | 5.87 |
| – | – | NC(=O)c1c(N)n(-c2cc(NC(=O)c3cccc(C(F)(F)F)c3)ccc2F)c2nc3ccccc3nc12 [Compound 10h, 2-amino-1-(2-fluoro-5-(3-(trifluoromethyl)benzamido)phenyl)-1H-pyrrolo[2,3-b]quinoxaline-3-carboxamide] | 0.37 | 10.9 | 2.16 | 1.88 | 1.44 | 2.06 | 1.8 |
| – | – | Cc1cn(-c2cc(NC(=O)c3ccc(C)c(-n4c(N)c(C(N)=O)c5nc6ccccc6nc54)c3)cc(C(F)(F)F)c2)cn1 [Compound 10l] | 0.029 | 16.2 | 2.84 | 5.71 | 3.05 | 3.01 | 4.36 |
| – | – | NC(=O)c1c(N)n(-c2ccc(NC(=S)Nc3cccc(C(F)(F)F)c3)cc2)c2nc3ccccc3nc12 [Compound 10k, 2-amino-1-(4-(3-(3-(trifluoromethyl)phenyl)thioureido)phenyl)-1H-pyrrolo[2,3-b]quinoxaline-3-carboxamide] | 5.07 | 9.9 | 2.52 | 8.73 | 9.63 | 4.25 | 16.3 |

Source: patent EP2924039A1, “2-Amino-1-phenyl-pyrrolo[3,2-b]quinoxaline-3-carboxamide derivates” (Universität Zürich, priority 2014, dated 2015)
